{
  "source": "patent US8546613B2",
  "about": "“SGK1 inhibitors for the prophylaxis and/or therapy of viral diseases and/or carcinomas” (priority 2008, dated 2013)",
  "key": {"[1]": {"biological_target": "T1, SGK1 protein kinase (Homo sapiens, UniProt O00141)", "T1 sequence (O00141 1-431)": "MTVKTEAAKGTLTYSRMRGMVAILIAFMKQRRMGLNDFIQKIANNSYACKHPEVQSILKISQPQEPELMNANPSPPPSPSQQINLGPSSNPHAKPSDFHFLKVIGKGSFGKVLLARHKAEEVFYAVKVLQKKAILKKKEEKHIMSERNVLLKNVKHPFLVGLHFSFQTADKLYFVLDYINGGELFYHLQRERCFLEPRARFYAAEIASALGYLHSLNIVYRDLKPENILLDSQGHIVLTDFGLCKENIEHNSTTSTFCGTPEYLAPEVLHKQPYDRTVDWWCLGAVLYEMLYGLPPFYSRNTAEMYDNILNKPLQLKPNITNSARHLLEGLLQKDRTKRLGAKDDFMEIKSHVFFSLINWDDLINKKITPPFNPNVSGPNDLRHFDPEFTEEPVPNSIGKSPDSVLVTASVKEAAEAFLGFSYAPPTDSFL", "experiment": "SGK1 protein kinase inhibition, filter binding method", "format": "biochemical", "details": "read-out: SGK1 enzyme inhibition IC50", "source_text": "Further assays are known from the literature and could easily be carried out by the person skilled in the art (see, for example, Dhanabal et al., Cancer Res. 59:189-197; Xin et al., J. Biol. Chem. 274:9116-9121; Sheu et al., Anticancer Res. 18:4435-4441; Ausprunk et al., Dev. Biol. 38:237-248; Gimbrone et al., J. Natl. Cancer Inst. 52:413-427; Nicosia et al., In Vitro 18:538-549).\nThe inhibition of SGK1 protein kinase can be determined in the filter binding method."}, "[2]": {"test_system": "LCMV", "design": "species or system mice", "details": "mouse, in vivo"}, "[3]": {"test_system": "colon carcinomas", "experiment": "Chemically induced (DMH/DSS) colon carcinomas in mice", "format": "in vivo", "details": "DMH/DSS-induced tumour genesis; 4.46 mg/g of feed (approx. 600 mg/kg) for 20 days, one week after the treatment; vs placebo", "procedure": "To this end, colon tumours were induced chemically in the experimental animals (Wang J G, Wang D F, Lv B J, Si J M: A novel mouse model for colitis-associated colon carcinogenesis induced by 1,2-dimethylhydrazine and dextran sulfate sodium. World J Gastroenterol 2004; 10:2958-2962). Some of the experimental animals were subjected to three cycles of chemical tumour genesis at an age of 8 weeks. To this end, the animals were treated intraperitoneally with 20 mg/kg of 1,2-dimethylhydrazine (DMH; Sigma-Aldrich Corporation. St. Louis. Mo. USA). Starting one week later, distilled water containing 30 g/l of synthetic dextran sulfate sodium (DSS; molecular weight 5000; Wako Pure Chemical Industries Ltd. Japan) was administered to the animals three times for 7 days and distilled water was administered for a further 14 days (total duration 3×(1+2 weeks)=9 weeks in total). The remainder of the experimental animals (control animals) were instead supplied intraperitoneally by injection with 20 mg/kg of a 0.9% sodium chloride solution. All mice were anaesthetised with ether at the age of 22 weeks and subsequently killed.\nOne week after the treatment, either a placebo or the SGK1 inhibitor was administered for 20 days. The SGK1 inhibitor had been added to the feed in a mixing ratio of 4.46 mg/g of feed. This corresponds to an approximate dose of 600 mg/kg of body weight."}},
  "data": [
    {"smiles": "CCc1c(C(=O)NNC(=O)C(O)c2cc(F)cc(F)c2)ccc(O)c1C", "note": "(racemic) [I, N′-[2-(3,5-Difluorophenyl)-2-hydroxyacetyl]-2-ethyl-4-hydroxy-3-methylbenzohydrazide]", "values": [
      {"measurement": "IC50", "setting": "[1]", "result": "> 0.3", "unit": "µM"},
      {"measurement": "bilirubin concentration", "setting": "[2]", "result": "significantly reduced"},
      {"measurement": "concentration of alanine aminotransferase", "setting": "[2]", "result": "significantly reduced"},
      {"measurement": "growth of colon tumours", "setting": "[3]", "result": "significantly inhibited"}
    ]},
    {"smiles": "CCc1c(C(=O)NNC(=O)[C@@H](O)c2cc(F)cc(F)c2)ccc(O)c1C", "note": "[Ia, N′-[(S)-2-(3,5-Difluorophenyl)-2-hydroxyacetyl]-2-ethyl-4-hydroxy-3-methylbenzohydrazide]", "values": [
      {"measurement": "IC50", "setting": "[1]", "result": "> 0.3", "unit": "µM"}
    ]}
  ]
}
